Data set [1] has as its system HIV-1. The note with it: previously reported; cited from earlier work.
Data set [2] deals with HIV-1IIIB in MT-2 cells. The data set can be described thus: Time-of-addition assay (p24 production). The note with it: 0.1 μM. Type of data set: cell-based. How it is done:
FIG. 1 NB-206 and its analogs inhibited HIV-1 entry. Inhibition of HIV-1 entry was determined by a time-of-addition assay. NB-206 (2.5 μM) and its analog NB-231 (2.5 μM) were added to MT-2 cells at different intervals post-infection by HIV-1IIIB. AZT (0.1 μM), a reverse transcriptase inhibitor, was included as a control. Each sample was tested in triplicate.
Assessment of anti-HIV-1 infectivity. […] Reactions were terminated by addition of 1N H2SO4.
A time-of-addition assay was carried out to determine whether NB-206 and its analogs are HIV-1 entry inhibitors. MT-2 cells were incubated with HIV-1IIIB at 37° C. for 0, 1, 2, 3, 4, 6, and 8 hrs, respectively, before addition of NB-206 and NB-231 at 2.5 μM. AZT (0.1 μM) was used as a control. After culture for another 2 hrs, the cells were washed to remove the free-virus and compounds. The supernatants were collected on day 4 post-infection for measurement of p24 production.

Data set [3] relates to HIV-1IIIB-infected H9 cells (H9/HIV-1IIIB) cocultured with MT-2 cells. As to conditions: single dose 25 μg/ml, HTS.
Procedure: Syncytium-formation assay for screening HIV-1 fusion inhibitors. HIV-1IIIB-infected H9 cells (H9/HIV-1IIIB) at 2×10^5/ml were cocultured with MT-2 cells (2×10^6/ml) in the presence of compounds to be screened (final concentration of compound: 25 μg/ml) in a 96-well plate at 37° C. for 2 days. HIV-1 induced syncytium formation was observed under an inverted microscope and scored as “−” (no syncytium was observed), “±” (about 50% syncytia were inhibited), and “+” (no syncytium formation was inhibited). The compounds scored with “−” and “±” were selected for further screening by ELISA for inhibitors against the gp41 six-helix bundle formation.
For data set [4], the target named is gp41 six-helix bundle formation between N36 and C34 (Human immunodeficiency virus type 1 group M subtype B, UniProt P04578). The method, then: ELISA for screening for compounds that inhibit the gp41 six-helix bundle formation. A sandwich ELISA as previously described (27) was used to screen for compounds that inhibit the gp41 six-helix bundle formation. Briefly, peptide N36 (2 μM) was pre-incubated with a test compound at the indicated concentrations at 37° C. for 30 min, followed by addition of C34 (2 μM). In the control experiments, N36 was pre-incubated with C34 at 37° C. for 30 min, followed by addition of the test compound. After incubation at 37° C. for 30 min, the mixture was added to wells of a 96-well polystyrene plate (Costar, Corning Inc., Corning, N.Y.) which were precoated with IgG (2 μg/ml) purified from rabbit antisera directed against the N36/C34 mixture. […] Absorbance at 450 nm was measured using an ELISA reader (Ultra 384, Tecan, Research Triangle Park, N.C.). […] Chou (Sloan-Kettering Cancer Center, New York, N.Y.).
A model system of the gp41 six-helix bundle was established by mixing the N— and C-peptides at equal molar concentrations (16).

Data set [5] deals with HIV-1 IIIB. The method, then:
Assessment of anti-HIV-1 infectivity. The inhibitory activity of compounds on infection by laboratory-adapted HIV-1 strains was determined as previously described (34). […] For the time-of-addition assay, compounds were added at various time post-infection. Then the culture supernatants were removed and fresh media were added. On the fourth day post-infection, 100 μl of culture supernatants were collected from each well, mixed with equal volumes of 5% Triton X-100 and assayed for p24 antigen, which was quantitated by ELISA (23). Briefly, the wells of polystyrene plates (Immulon 1B, Dynex Technology, Chantilly, Va.) were coated with HIV immunoglobulin (HIVIG), which was prepared from plasma of HIV-seropositive donors with high neutralizing titers against HIV-1IIIB as previously described (36) in 0.085 M carbonate-bicarbonate buffer (pH 9.6) at 4° C. overnight, followed by washes with PBS-T buffer (0.01M PBS containing 0.05% Tween-20) and blocking with PBS containing 1% dry fat-free milk (Bio-Rad Inc., Hercules, Calif.). Virus lysates were added to the wells and incubated at 37° C. for 1 h. […] Reactions were terminated by addition of 1N H2SO4. […] Recombinant protein p24 (US Biological, Swampscott, Mass.) was included for establishing standard dose response curve.

For data set [6], the system named is MT-2 cells. The note with it: read-out: Cytotoxicity CC50 (μM) (M ± SD); MT-2 cells. The method, then: Detection of in vitro cytotoxicity. The in vitro cytotoxicity of compounds for MT-2 cells was measured by a colorimetric method using XTT tetrazolium dye as previously described (21). Briefly, 100 μl of a compound at a graded concentration was added to equal volume of cells (5×10^5/ml) in a well of 96-well plates. After incubation at 37° C. for 4 days, XTT (1 mg/ml; […]; PolySciences, Inc., Warrington, Pa.) was added. Four hours later, the soluble intracellular formazan was quantitated colorimetrically at 450 nm with a reference at 570 nm.

Data set [7] deals with HIV-1IIIB infected H9 cells (H9/HIV-1IIIB) and MT-2 cells. Description: HIV-1 mediated cell-cell fusion (dye transfer assay). The note with it: H9/HIV-1IIIB with MT-2 cells; read-out: EC50 (μM) (M ± SD) for inhibition of Cell fusion. Type of data set: cell-based. How it is done:
Inhibition of cell-cell fusion. A dye transfer assay was used for detection of HIV-1 mediated cell fusion as previously described (11,25,26). H9/HIV-1IIIB cells were labeled with a fluorescent reagent, Calcein-AM (Molecular Probes, Inc., Eugene, Oreg.) and then incubated with MT-2 cells (ratio=1:5) in 96-well plates at 37° C. for 2 hrs in the presence or absence of compounds tested. The fused and unfused Cacein-labeled HIV-1-infected cells were counted under an inverted fluorescence microscope (Zeiss, Germany) with an eyepiece micrometer disc. The percentage of inhibition of cell fusion and the IC50 values were calculated as previously described (11).

Data set [8] has as its system HIV-1 IIIB. The data set can be described thus: HIV-1-mediated cytopathic effect (CPE). Type of data set: cell-based. The note with it: read-out: EC50 (μM) (M ± SD) for inhibition of CPE. The source says: We thus purchased these compounds and tested their inhibitory activity on: 1) HIV-1 replication (p24 production); 2) HIV-1-mediated cytopathic effect (CPE); and 3) HIV-1 Env-induced cell-cell fusion; and their cytotoxicity to MT-2 cells.
In general terms: Damage to the host cells serves as the signal in cytopathic effect assays.

Each structure is given as a SMILES string. Where two headings read alike, the source gives them in different places.

gp41 six-helix bundle formation between N36 and C34, sequence (P04578 546-581): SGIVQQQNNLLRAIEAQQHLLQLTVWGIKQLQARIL

For the compound `COc1ccc(S(=O)(=O)[O-])cc1N=Nc1c(S(=O)(=O)[O-])cc2cc(Nc3nc(Nc4ccccc4)nc(Nc4cc(C)c(N=Nc5cc(S(=O)(=O)[O-])cc6cc(S(=O)(=O)[O-])cc(O)c56)cc4OC)n3)ccc2c1O.[Na+].[Na+].[Na+].[Na+]` [ADS-J1], the anti-HIV-1 activities entry in data set [1] is given as “micromolar levels”.
`Cc1cn([C@H]2C[C@H](N=[N+]=[N-])[C@@H](CO)O2)c(=O)[nH]c1=O` [AZT]: the “inhibition of HIV-1 replication, added 8 hrs post-infection” value in data set [2] is “still effective”.
Usually EC50 stands for the concentration at which the effect is half-maximal. What is called CC50 is the concentration at which the toxic effect on the cells reaches its halfway point. With `O=C(O)c1cccc(-c2ccc(/C=C3\SC(=S)N(c4cccc(Cl)c4)C3=O)o2)c1` [NB145], the “inhibition of HIV-1 mediated syncytium formation” value in data set [3] is listed as “completely inhibited”. Besides, the “inhibition of six-helix bundle formation between N36 and C34” value in data set [4] (single dose 25 μg/ml, HTS) is on record as “completely inhibited”. In addition, the EC50 stood at 0.18 ± 0.02 µM in data set [5] (read-out: EC50 (μM) (M ± SD) for inhibition of p24, HIV-1 IIIB, MT-2 cells); 1.77 ± 0.09 µM in data set [7]; 0.18 ± 0.006 µM in data set [8]. Moreover, in data set [5] (selectivity index), the “SI (CC50/EC50)” value is on record as 261.5. Besides, in data set [6], the CC50 came to 47.5 ± 6.37 µM.
As usually defined, the IC50 is the concentration at which inhibition is half-maximal. In the case of `O=C(O)c1cccc(-c2ccc(/C=C3\SC(=S)N(c4cccc(C(F)(F)F)c4)C3=O)o2)c1` [NB154], in data set [4] (read-out: IC50 for inhibition of six-helix bundle formation between N36 and C34, sandwich ELISA, FIG. 3), the half-inhibitory concentration (IC50) worked out at 1.56 ± 0.12 µM.

(Values after patent US20060287319A1, “Anti-viral compositions comprising heterocyclic substituted phenyl furans and related compounds” (priority 2005, published 2006).)
